The source of these data is patent US8486951B2 (Deciphera Pharmaceuticals, LLC, priority 2008, dated 2013).

The target in one assay is T1, PDGFRα kinase (Homo sapiens, UniProt P16234).
T1 construct: purchased Invitrogen
The assay can be described thus: PDGFRα Kinase Assay. Type of assay: biochemical. The settings on record: read-out: PDGFRa Enzyme Assay. As to the method: (§1) Activity of PDGFRα kinase was determined by following the production of ADP from the kinase reaction through coupling with the pyruvate kinase/lactate dehydrogenase system. In this assay, the oxidation of NADH (thus the decrease at A340 nm) was continuously monitored spectrophometrically. The reaction mixture (100 μl) contained PDGFRα (Invitrogen, 10 nM), polyE4Y (1 mg/ml), MgCl2 (10 mM), pyruvate kinase (4 units), lactate dehydrogenase (0.7 units), phosphoenol pyruvate (1 mM) and NADH (0.28 mM) and ATP (500 μM) in a 90 mM Tris buffer containing 0.2% octyl-glucoside and 1% DMSO, pH 7.5. The inhibition reaction was started by mixing serial diluted test compound with the above reaction mixture. The absorption at 340 nm was monitored continuously for 4 hours at 30° C. on a Polarstar Optima or Synergy 2 plate reader. The reaction rate was calculated using the 2 to 3 h time frame. Percent inhibition was obtained by comparison of reaction rate with that of a control (i.e. with no test compound). IC50 values were calculated from a series of percent inhibition values determined at a range of inhibitor concentrations using software routines as implemented in the GraphPad Prism software package.

In assay [1] the target is T2, c-MET kinase (Seq. ID no. 2) (Homo sapiens, UniProt P08581).
T2 construct: purchased Invitrogen PV3143
The assay can be described thus: c-MET Kinase Assay (ADP production, pyruvate kinase/lactate dehydrogenase coupled). Type of assay: biochemical. The settings on record: read-out: cMET Enzyme Assay. The protocol: In this assay, the oxidation of NADH (thus the decrease at A340 nm) was continuously monitored spectrophometrically. […] Test compounds were incubated with C-Met (Seq. ID no. 2) and other reaction reagents at 22° C. for 0.5 h before ATP (100 μM) was added to start the reaction. The absorption at 340 nm was monitored continuously for 2 hours at 30° C. on Polarstar Optima plate reader (BMG). The reaction rate was calculated using the 1.0 to 2.0 h time frame. Percent inhibition was obtained by comparison of reaction rate with that of a control (i.e. with no test compound). IC50 values were calculated from a series of percent inhibition values determined at a range of inhibitor concentrations using software routines as implemented in the GraphPad Prism software package.

Another assay relates to EBC-1 cells. The assay can be described thus: EBC-1 Cell Proliferation Assay (resazurin). Conditions: Homo sapiens, 67 h + 5 h resazurin, read-out: EBC1 Cell Proliferation. Type of assay: cell-based. The protocol: EBC-1 cells (catalog #JCRB0820) were obtained from the Japan Health Science Research Resources Bank, Osaka, Japan. Briefly, cells were grown in DMEM supplemented with 10% characterized fetal bovine serum (Invitrogen, Carlsbad, Calif.) at 37 degrees Celsius, 5% CO2, 95% humidity. Cells were allowed to expand until reaching 70-95% confluency at which point they were subcultured or harvested for assay use.
EBC-1 Cell Proliferation Assay
A serial dilution of test compound was dispensed into a 96-well black clear bottom plate (Corning, Corning, N.Y.). For each cell line, five thousand cells were added per well in 200 μL complete growth medium. Plates were incubated for 67 hours at 37 degrees Celsius, 5% CO2, 95% humidity. […] Data was analyzed using Prism software (Graphpad, San Diego, Calif.) to calculate IC50 values.

In assay [2] the target is T3, c-KIT kinase (Seq. ID no. 1) (Homo sapiens, UniProt P10721).
T3 construct: purchased ProQinase
Nature of the assay: c-KIT kinase Assay (ADP production, pyruvate kinase/lactate dehydrogenase coupled). Conditions: read-out: cKIT Enzyme Assay. Type of assay: biochemical. As to the method:
In this assay, the oxidation of NADH (thus the decrease at A340 nm) was continuously monitored spectrophometrically. […] The absorption at 340 nm was monitored continuously for 0.5 hours at 30° C. on Polarstar Optima plate reader (BMG). The reaction rate was calculated using the 0 to 0.5 h time frame. Percent inhibition was obtained by comparison of reaction rate with that of a control (i.e. with no test compound). IC50 values were calculated from a series of percent inhibition values determined at a range of inhibitor concentrations using software routines as implemented in the GraphPad Prism software package.

Another assay deals with T4, PDGFRβ (Homo sapiens, UniProt P09619).
T4 construct: purchased Invitrogen
Nature of the assay: PDGFRβ Kinase Assay. Type of assay: biochemical. The settings on record: read-out: PDGFRb Enzyme Assay.

The target in another assay is T5, FMS kinase (Homo sapiens, UniProt P07333).
T5 construct: purchased Invitrogen or Millipore
The assay can be described thus: FMS Kinase Assay. Type of assay: biochemical. Conditions: read-out: FMS Enzyme Assay. The protocol:
as §1, with “In” for “Activity of PDGFRα kinase was determined by following the production of ADP from the kinase reaction through coupling with the pyruvate kinase/lactate dehydrogenase system. In”, “FMS (purchased from Invitrogen or Millipore, 6” for “PDGFRα (Invitrogen, 10”

For assay [3], the target named is KDR kinase (Seq ID No. 3) (Homo sapiens, UniProt P35968, DEL940-989/E990V). Nature of the assay: KDR Kinase Assay (assays K1, K2, K3). Type of assay: biochemical. Conditions: assay variant K1, K2 or K3 not stated; read-out: KDR Enzyme Assay.
Sequence of KDR kinase (Seq ID No. 3) (P35968 with tags, fused parts or gaps DEL940-989/E990V): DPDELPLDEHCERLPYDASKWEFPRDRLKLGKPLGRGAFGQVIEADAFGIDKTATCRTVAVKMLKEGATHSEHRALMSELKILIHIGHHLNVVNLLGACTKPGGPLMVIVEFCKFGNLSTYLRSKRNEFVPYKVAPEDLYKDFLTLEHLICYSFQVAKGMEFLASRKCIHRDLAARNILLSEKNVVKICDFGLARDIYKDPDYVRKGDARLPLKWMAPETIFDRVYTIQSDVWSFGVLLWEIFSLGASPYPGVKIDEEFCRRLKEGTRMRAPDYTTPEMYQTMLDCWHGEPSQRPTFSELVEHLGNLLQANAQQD

T1 sequence (P16234 24-1089): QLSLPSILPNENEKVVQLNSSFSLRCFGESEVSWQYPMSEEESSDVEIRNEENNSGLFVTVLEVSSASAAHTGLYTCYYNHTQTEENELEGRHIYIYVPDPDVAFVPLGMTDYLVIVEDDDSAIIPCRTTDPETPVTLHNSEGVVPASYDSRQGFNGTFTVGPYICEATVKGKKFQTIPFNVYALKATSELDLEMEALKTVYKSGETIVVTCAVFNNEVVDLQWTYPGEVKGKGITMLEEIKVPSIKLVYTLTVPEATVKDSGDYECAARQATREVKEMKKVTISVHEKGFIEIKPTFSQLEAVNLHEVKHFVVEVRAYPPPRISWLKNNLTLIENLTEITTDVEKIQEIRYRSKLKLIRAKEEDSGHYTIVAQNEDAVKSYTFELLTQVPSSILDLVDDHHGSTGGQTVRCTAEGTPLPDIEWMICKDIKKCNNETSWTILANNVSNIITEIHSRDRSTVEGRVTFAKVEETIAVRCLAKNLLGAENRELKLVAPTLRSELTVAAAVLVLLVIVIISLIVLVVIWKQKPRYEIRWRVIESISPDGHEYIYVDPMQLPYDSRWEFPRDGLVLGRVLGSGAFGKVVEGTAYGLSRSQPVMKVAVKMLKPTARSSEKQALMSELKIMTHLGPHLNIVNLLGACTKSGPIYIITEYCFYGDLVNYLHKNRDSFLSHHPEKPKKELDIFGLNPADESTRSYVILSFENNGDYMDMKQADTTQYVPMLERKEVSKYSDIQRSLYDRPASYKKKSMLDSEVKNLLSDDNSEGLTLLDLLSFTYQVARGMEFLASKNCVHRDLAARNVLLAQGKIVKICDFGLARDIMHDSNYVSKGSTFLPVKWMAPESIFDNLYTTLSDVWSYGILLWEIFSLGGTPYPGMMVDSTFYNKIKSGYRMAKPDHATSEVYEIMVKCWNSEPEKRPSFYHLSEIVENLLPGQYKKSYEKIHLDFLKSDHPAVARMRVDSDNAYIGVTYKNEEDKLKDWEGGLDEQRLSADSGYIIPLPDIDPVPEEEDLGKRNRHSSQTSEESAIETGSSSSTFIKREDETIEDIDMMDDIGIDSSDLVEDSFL
T3 sequence (P10721 with tags, fused parts or gaps): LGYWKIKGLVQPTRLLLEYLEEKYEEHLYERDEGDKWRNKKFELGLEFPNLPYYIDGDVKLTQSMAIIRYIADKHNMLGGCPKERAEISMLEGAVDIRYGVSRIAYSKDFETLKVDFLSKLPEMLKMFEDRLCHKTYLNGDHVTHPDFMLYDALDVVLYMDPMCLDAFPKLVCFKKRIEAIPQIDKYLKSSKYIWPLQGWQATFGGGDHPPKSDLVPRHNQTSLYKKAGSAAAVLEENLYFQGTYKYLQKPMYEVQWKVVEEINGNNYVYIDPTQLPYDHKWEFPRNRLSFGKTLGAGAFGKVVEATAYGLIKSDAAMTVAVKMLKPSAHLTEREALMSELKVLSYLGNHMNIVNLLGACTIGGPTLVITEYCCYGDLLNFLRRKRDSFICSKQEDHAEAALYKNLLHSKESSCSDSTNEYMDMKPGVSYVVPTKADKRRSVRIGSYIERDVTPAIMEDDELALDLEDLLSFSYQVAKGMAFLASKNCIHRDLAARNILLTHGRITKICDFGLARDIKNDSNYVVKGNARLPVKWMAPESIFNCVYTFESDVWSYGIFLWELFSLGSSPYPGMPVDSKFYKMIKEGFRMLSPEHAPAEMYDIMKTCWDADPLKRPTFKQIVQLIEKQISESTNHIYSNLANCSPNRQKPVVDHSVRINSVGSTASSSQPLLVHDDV
T4 sequence (P09619 33-1106): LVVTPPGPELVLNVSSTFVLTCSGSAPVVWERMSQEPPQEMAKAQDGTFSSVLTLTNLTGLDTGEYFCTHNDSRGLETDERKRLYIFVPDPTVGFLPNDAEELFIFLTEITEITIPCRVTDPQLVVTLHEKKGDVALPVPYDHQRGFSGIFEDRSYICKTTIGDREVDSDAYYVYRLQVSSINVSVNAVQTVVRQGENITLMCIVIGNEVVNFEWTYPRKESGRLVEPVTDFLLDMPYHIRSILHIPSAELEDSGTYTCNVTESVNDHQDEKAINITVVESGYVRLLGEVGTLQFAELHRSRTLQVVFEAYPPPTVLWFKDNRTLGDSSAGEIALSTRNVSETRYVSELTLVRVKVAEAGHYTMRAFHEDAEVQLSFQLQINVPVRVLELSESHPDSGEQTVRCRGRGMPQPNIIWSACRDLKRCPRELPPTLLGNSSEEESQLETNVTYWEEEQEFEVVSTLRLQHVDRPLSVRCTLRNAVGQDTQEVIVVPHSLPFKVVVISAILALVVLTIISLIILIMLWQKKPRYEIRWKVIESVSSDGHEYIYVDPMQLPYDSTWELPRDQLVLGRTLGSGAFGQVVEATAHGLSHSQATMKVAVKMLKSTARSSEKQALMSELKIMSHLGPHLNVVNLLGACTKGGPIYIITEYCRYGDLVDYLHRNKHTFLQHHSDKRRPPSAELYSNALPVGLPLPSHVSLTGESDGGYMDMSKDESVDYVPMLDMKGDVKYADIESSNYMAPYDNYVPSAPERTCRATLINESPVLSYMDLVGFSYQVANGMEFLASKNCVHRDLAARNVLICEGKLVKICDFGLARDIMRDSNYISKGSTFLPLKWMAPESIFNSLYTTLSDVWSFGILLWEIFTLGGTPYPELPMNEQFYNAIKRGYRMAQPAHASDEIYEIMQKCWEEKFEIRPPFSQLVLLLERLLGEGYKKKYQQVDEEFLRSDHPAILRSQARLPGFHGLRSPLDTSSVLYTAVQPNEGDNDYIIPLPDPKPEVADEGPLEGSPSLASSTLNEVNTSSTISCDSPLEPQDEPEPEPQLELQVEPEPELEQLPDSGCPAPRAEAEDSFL
T5 sequence (P07333 20-972): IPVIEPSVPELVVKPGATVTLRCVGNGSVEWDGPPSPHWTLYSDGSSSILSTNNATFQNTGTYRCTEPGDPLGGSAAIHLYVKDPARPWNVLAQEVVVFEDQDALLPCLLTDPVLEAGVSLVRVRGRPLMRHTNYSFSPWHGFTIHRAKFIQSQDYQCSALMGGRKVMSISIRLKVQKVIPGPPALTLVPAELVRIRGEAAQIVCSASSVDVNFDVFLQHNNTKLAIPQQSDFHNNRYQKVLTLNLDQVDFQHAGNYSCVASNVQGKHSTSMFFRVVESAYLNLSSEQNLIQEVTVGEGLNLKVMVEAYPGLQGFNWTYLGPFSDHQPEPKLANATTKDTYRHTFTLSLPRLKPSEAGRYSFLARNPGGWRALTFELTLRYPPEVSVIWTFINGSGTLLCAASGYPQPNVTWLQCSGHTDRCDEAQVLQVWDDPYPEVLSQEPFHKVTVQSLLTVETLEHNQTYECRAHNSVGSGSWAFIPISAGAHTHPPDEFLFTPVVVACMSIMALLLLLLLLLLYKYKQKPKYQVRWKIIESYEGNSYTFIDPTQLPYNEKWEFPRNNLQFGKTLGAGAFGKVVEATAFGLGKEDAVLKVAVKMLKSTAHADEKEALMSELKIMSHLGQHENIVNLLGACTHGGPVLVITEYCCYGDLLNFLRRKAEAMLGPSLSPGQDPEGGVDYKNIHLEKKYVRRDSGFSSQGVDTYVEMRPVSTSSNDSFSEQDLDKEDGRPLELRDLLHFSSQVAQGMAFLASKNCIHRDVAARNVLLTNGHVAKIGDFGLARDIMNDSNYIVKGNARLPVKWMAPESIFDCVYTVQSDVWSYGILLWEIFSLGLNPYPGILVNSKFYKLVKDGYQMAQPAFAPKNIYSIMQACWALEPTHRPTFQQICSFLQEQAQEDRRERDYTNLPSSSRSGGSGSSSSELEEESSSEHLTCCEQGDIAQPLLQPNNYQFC
T2 sequence (P08581 with tags, fused parts or gaps): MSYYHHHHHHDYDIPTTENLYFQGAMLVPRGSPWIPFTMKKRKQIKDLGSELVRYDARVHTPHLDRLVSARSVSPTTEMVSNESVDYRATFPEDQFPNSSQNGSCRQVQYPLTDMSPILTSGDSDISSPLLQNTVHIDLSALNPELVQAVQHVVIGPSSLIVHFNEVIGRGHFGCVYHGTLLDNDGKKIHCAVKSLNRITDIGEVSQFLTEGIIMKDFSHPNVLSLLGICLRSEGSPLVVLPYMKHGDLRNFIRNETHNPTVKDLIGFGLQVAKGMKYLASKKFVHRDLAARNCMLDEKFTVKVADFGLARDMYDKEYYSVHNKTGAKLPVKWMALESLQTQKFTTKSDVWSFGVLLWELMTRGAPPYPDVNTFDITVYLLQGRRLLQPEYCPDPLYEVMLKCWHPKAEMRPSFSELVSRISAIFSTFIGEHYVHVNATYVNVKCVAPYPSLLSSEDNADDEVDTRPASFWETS

For `Cn1cc(-c2cc(Oc3ccc(NC(=O)C4(C(=O)Nc5ccc(F)cc5)CC4)cc3Cl)ccn2)cn1` [Example 30, N-(3-chloro-4-(2-(1-methyl-1H-pyrazol-4-yl)pyridin-4-yloxy)phenyl)-N′-(4-fluorophenyl)cyclopropane-1,1-dicarboxamide], the IC50 on PDGFRα kinase is under 2000 nM; in assay [1], under 200 nM; in the assay on EBC-1 cells, under 2000 nM; in assay [2], under 200 nM; at PDGFRβ, under 10000 nM.

Consider `CCn1cc(-c2cc(Oc3ccc(NC(=O)C4(C(=O)Nc5ccc(F)cc5)CC4)cc3F)ccn2)cn1` [Example 19, N-(4-(2-(1-ethyl-1H-pyrazol-4-yl)pyridin-4-yloxy)-3-fluorophenyl)-N′-(4-fluorophenyl)cyclopropane-1,1-dicarboxamide], for which, in the assay with EBC-1 cells, the IC50 is under 2000 nM.

In the case of `CCCn1cc(-c2cc(Oc3ccc(NC(=O)C4(C(=O)Nc5ccc(F)cc5)CC4)cc3F)ccn2)cn1` [Example 20, N-(3-fluoro-4-(2-(1-propyl-1H-pyrazol-4-yl)pyridin-4-yloxy)phenyl)-N′-(4-fluorophenyl)cyclopropane-1,1-dicarboxamide], in the assay with EBC-1 cells, the IC50 is under 2000 nM.

On to “1-(2,3-difluoro-4-(2-(1H-pyrazol-4-yl)pyridin-4-yloxy)phenyl)-3-(2-(4-fluorophenyl)acetyl)urea [Example 43]”, for which the IC50 is under 200 nM on FMS kinase; under 200 nM on PDGFRα kinase; under 10000 nM in assay [3]; under 2000 nM in assay [1]; under 2000 nM in assay [2]; under 2000 nM at PDGFRβ.

In the case of `C[C@@H](NC(=O)C1(C(=O)Nc2ccc(Oc3ccnc(-c4cnn(C)c4)c3)c(F)c2)CC1)c1ccccc1` [Example 17, N-(3-fluoro-4-(2-(1-methyl-1H-pyrazol-4-yl)pyridin-4-yloxy)phenyl)-N′-((R)-1-phenylethyl)cyclopropane-1,1-dicarboxamide], the IC50 on FMS kinase was under 200 nM; on PDGFRα kinase, under 10000 nM; in assay [3], under 10000 nM; in assay [2] it was under 2000 nM; at PDGFRβ, under 10000 nM.

Regarding `Cn1cc(-c2cc(Oc3ccc(NC(=O)C4(C(=O)Nc5ccc(F)cc5)CC4)cn3)ccn2)cn1` [Example 38, N-(4-fluorophenyl)-N′-(6-(2-(1-methyl-1H-pyrazol-4-yl)pyridin-4-yloxy)pyridin-3-yl)cyclopropane-1,1-dicarboxamide], the IC50 is under 10000 nM at FMS kinase, under 10000 nM in assay [3] and under 2000 nM in assay [1].

In the case of `O=C(Nc1ccc(F)cc1)C1(C(=O)Nc2ccc(Oc3ccnc(-c4cnn(CCO)c4)c3)c(F)c2)CC1` [Example 21, N-(3-fluoro-4-(2-(1-(2-hydroxyethyl)-1H-pyrazol-4-yl)pyridin-4-yloxy)phenyl)-N′-(4-fluorophenyl)cyclopropane-1,1-dicarboxamide], the IC50 on PDGFRα kinase is under 2000 nM; in assay [3], under 2000 nM; in assay [1], under 2000 nM; in the assay with EBC-1 cells it was under 2000 nM; in assay [2], under 2000 nM; at PDGFRβ it was under 10000 nM.

With `Cn1cc(-c2cc(Oc3cc(F)c(NC(=O)C4(C(=O)Nc5ccc(F)cc5)CC4)cc3Cl)ccn2)cn1` [Example 47, N-(5-chloro-2-fluoro-4-(2-(1-methyl-1H-pyrazol-4-yl)pyridin-4-yloxy)phenyl)-N′-(4-fluorophenyl)cyclopropane-1,1-dicarboxamide], the IC50 on PDGFRα kinase was under 200 nM; in assay [3] it was under 2000 nM; in assay [1], under 200 nM; in the assay with EBC-1 cells, under 200 nM; in assay [2], under 200 nM; on PDGFRβ, under 10000 nM.

For the compound `Cn1cc(-c2cc(Oc3ccc(NC(=O)C4(C(=O)NCc5ccccc5)CC4)cc3F)ccn2)cn1` [Example 4, N-benzyl-N′-(3-fluoro-4-(2-(1-methyl-1H-pyrazol-4-yl)pyridin-4-yloxy)phenyl)cyclopropane-1,1-dicarboxamide], the IC50 at FMS kinase is under 200 nM; on PDGFRα kinase, under 10000 nM; in assay [3], under 2000 nM; in assay [2] it was under 2000 nM; on PDGFRβ, under 10000 nM.

`Cn1cc(-c2cc(Oc3c(F)cc(NC(=O)NC(=O)Cc4ccc(F)cc4)cc3F)ccn2)cn1` [Example 48, 1-(3,5-difluoro-4-(2-(1-methyl-1H-pyrazol-4-yl)pyridin-4-yloxy)phenyl)-3-(2-(4-fluorophenyl)acetyl)urea]: the IC50 is under 10000 nM on FMS kinase; under 10000 nM at PDGFRα kinase; under 2000 nM in assay [3]; under 10000 nM in assay [1]; under 2000 nM in assay [2]; under 10000 nM on PDGFRβ.

On to `O=C(Nc1ccc(F)cc1)C1(C(=O)Nc2ccc(Oc3ccnc(-c4cn[nH]c4)c3)c(F)c2)CC1` [Example 31, N-(4-(2-(1H-pyrazol-4-yl)pyridin-4-yloxy)-3-fluorophenyl)-N′-(4-fluorophenyl)cyclopropane-1,1-dicarboxamide], for which the IC50 in assay [1] was under 200 nM; in the assay on EBC-1 cells it was under 2000 nM.

As to `Cn1cc(-c2ccnc(Oc3ccc(F)c(NC(=O)C4(C(=O)Nc5ccc(F)cc5)CC4)c3)n2)cn1` [Example 53, N-(2-fluoro-5-(4-(1-methyl-1H-pyrazol-4-yl)pyrimidin-2-yloxy)phenyl)-N′-(4-fluorophenyl)cyclopropane-1,1-dicarboxamide], the IC50 (on FMS kinase; in assay [3]; in assay [1]) was under 10000 nM in each case.

On to `Cc1cc(-c2cc(Oc3ccc(NC(=O)C4(C(=O)Nc5ccc(F)cc5)CC4)c(F)c3)ccn2)on1` [Example 59, N-(2-fluoro-4-(2-(3-methylisoxazol-5-yl)pyridin-4-yloxy)phenyl)-N′-(4-fluorophenyl)cyclopropane-1,1-dicarboxamide], for which the IC50 at FMS kinase is under 200 nM; in assay [3], under 10000 nM; in assay [1], under 200 nM.

Regarding `O=C(Nc1ccc(F)cc1)C1(C(=O)Nc2cc(Oc3nccc(-c4cn[nH]c4)n3)ccc2F)CC1` [Example 55, N-(5-(4-(1H-pyrazol-4-yl)pyrimidin-2-yloxy)-2-fluorophenyl)-N′-(4-fluorophenyl)cyclopropane-1,1-dicarboxamide], the IC50 (at FMS kinase; on PDGFRα kinase; in assay [3]; in assay [1]; in assay [2]; on PDGFRβ) was under 10000 nM each time.
